Measurements published in PubChem BioAssay (NCI).
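96-well plates; 48 h exposure; 5 concentrations. Endpoints by linear interpolation between flanking doses. Not reached: highest tested concentration assigned. GI50: concentration for 50% inhibition of growth. At the TGI there is no net growth.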

Columns and labels:
Assay in all cases: inhibition of tumour cell growth, NCI panel, 48 h
RPMI-8226 leukemia = test system: RPMI-8226 leukemia
OVCAR-3 ovarian = test system: OVCAR-3 ovarian
CCRF-CEM leukemia = test system: CCRF-CEM leukemia
NCI-H226 lung = test system: NCI-H226 lung
NCI-H23 lung = test system: NCI-H23 lung
OVCAR-5 ovarian = test system: OVCAR-5 ovarian
M14 melanoma = test system: M14 melanoma
T-47D breast = test system: T-47D breast
PC-3 prostate = test system: PC-3 prostate
OVCAR-4 ovarian = test system: OVCAR-4 ovarian

Compound	TGI (RPMI-8226 leukemia) [µM]	TGI (OVCAR-3 ovarian) [µM]	TGI (CCRF-CEM leukemia) [µM]	TGI (NCI-H226 lung) [µM]	TGI (NCI-H23 lung) [µM]	TGI (OVCAR-5 ovarian) [µM]	TGI (M14 melanoma) [µM]	GI50 (RPMI-8226 leukemia) [µM]	GI50 (OVCAR-3 ovarian) [µM]	GI50 (T-47D breast) [µM]	TGI (T-47D breast) [µM]	GI50 (CCRF-CEM leukemia) [µM]	GI50 (PC-3 prostate) [µM]	TGI (PC-3 prostate) [µM]	GI50 (NCI-H226 lung) [µM]	GI50 (NCI-H23 lung) [µM]	GI50 (OVCAR-5 ovarian) [µM]	GI50 (M14 melanoma) [µM]	TGI (OVCAR-4 ovarian) [µM]	GI50 (OVCAR-4 ovarian) [µM]
O=C(Nc1ccc(Cl)cc1)C1C(=O)C(=O)N(c2ccc(Cl)cc2)C1=O (stereo not drawn)	> 100	> 100	> 100	> 100	> 100	> 100	> 100	–	–	–	–	–	–	–	–	–	–	–	–	–
O=C1NC(=S)S/C1=C/c1ccc2c(c1)OCO2	> 100	> 100	> 100	> 100	> 100	> 100	> 100	> 100	65.1	> 100	> 100	> 100	82.1	> 100	> 100	> 100	> 100	> 100	–	–
C=CC[P@]1(=O)O[C@H](c2ccccc2)[C@H](C)N1C	> 100	> 100	> 100	> 100	> 100	> 100	> 100	–	–	–	–	–	–	–	–	–	–	–	> 100	–
CCCCCCCCCCCCCP(=O)(O)O	–	> 100	> 100	> 100	> 100	> 100	> 100	–	–	–	–	–	–	–	–	–	–	–	> 100	–
O=C(O)CCCc1ccc2ccc3ccccc3c2c1	> 100	> 100	–	> 100	> 100	> 100	> 100	–	–	–	> 100	–	–	> 100	–	–	–	–	> 100	–
COc1ccc(C=O)cc1O[Si](C)(C)C(C)(C)C	> 100	> 100	> 100	–	> 100	> 100	> 100	–	–	–	–	–	–	–	–	–	–	–	> 100	–
N#CCC(=O)N/N=C1/C(=O)N(c2ccc(Cl)cc2)C(=O)C(=O)C1c1nc2ccccc2s1 (stereo not drawn)	–	> 100	–	> 100	> 100	> 100	> 100	–	–	–	–	–	–	–	–	–	–	–	> 100	–
C[C@]12CCc3sc(Nc4ccc(OC(F)(F)F)cc4)nc3C1=CC[C@@H]1[C@@H]2CC[C@]2(C)C(=O)CC[C@@H]12	3.77	4.14	> 100	44.1	21.7	40.3	8.72	1.02	1.94	2.15	6.43	1.42	–	–	6.37	3.73	9.06	3.29	25.8	3.31
COc1ccc2c(c1)OC1=C(C(=O)OC1)C2c1cc(OC)c2c(c1)OCCO2 (stereo not drawn)	> 100	0.0714	–	–	> 100	> 100	> 100	0.0871	0.0285	–	–	0.0647	0.0487	> 100	–	0.0454	0.126	0.0566	> 100	0.173
NC1=NN(c2ccccc2)C(=O)C1C(=O)CCC(=O)Nc1cccc(Cl)c1 (stereo not drawn)	–	> 100	> 100	> 100	> 100	> 100	> 100	–	–	–	–	–	–	–	–	–	–	–	> 100	–
NC(CCCC(N)P(=O)(O)O)P(=O)(O)O (stereo not drawn)	> 100	> 100	> 100	> 100	> 100	–	> 100	–	–	–	–	–	–	–	–	–	–	–	–	–
